# Columns and labels:
# Assay type in all cases: in vivo
# [1] = test system: canola; assay: Field trial: grain yield of canola, postemergence treatment with Cyprosulfamide
# Description: (§1) The trials have been carried out under natural field conditions (plot trials, 10 square meter plots, 2-4 replications).
# (§2) The applications have been done with seed treatment, pre- or post-emergence treatments straight (alone, 1 application) or sequential treatments e.g. seed treatment followed by pre-emergence and/or post-emergence spray applications. The pre- or post-emergence applications were made with spray applications using 100-300 I/water per hectare. The growth stage of the crops species at the time of application are reported in the result tables. The dose rates of the herbicidal active ingredients applied alone respective in sequential application are also described in the result tables.
# (§3) The assessments have been done via visual ratings (0-100% scale) or counting. The trials have been harvested after crops reached the full maturity. After the harvest the total weight of kernels/seeds/beets per plot was measured. The results are reported as means over 2-4 replications. The time between applications and assessments or countings/harvest are described in the result tables as well.
# [2] = test system: canola; assay: Field trial: grain yield of canola, sequential application of Cyprosulfamide
# Description: (§4) The trials have been carried out under natural field conditions (plot trials, 10 square meter plots, 2-4 replications). The applications have been done with seed treatment, pre- or post-emergence treatments straight (alone, 1 application) or sequential treatments e.g. seed treatment followed by pre-emergence and/or post-emergence spray applications. The pre- or post-emergence applications were made with spray applications using 100-300 I/water per hectare. The growth stage of the crops species at the time of application are reported in the result tables. The dose rates of the herbicidal active ingredients applied alone respective in sequential application are also described in the result tables. The assessments have been done via visual ratings (0-100% scale) or counting. The trials have been harvested after crops reached the full maturity. After the harvest the total weight of kernels/seeds/beets per plot was measured. The results are reported as means over 2-4 replications. The time between applications and assessments or countings/harvest are described in the result tables as well. The active ingredients have been applied to the untreated, dry seeds together with a carrier. After a short period of time to let the seeds dry, they were ready to be sown in the pot or field using standard equipments.
# [3] = test system: rice plants; assay: Field trial: germination and emergence of rice plants after seed treatment with Cyprosulfamide
# Description: as §4
# [4] = test system: corn (maize); assay: Field trial: grain yield of corn (maize) after seed treatment with Cyprosulfamide; settings: for Difference(%) vs. UTC / Relative %: corn (maize) grain yield; for Relative %: UTC = 100%; for Yield (grain yield at harvest): corn (maize), seed treatment prior planting, 110 days after planting (short season variety)
# Description: as §4
# [5] = test system: corn; assay: Field trial: biomass yield and plant density of corn, sequential application of Cyprosulfamide; settings: 0.15 g ai/kg seed fb 3 × 50 g ai/ha post, 98 days after emergence
# Description: as §4
# [6] = test system: corn; assay: Field trial: grain yield of corn, postemergence application of Cyprosulfamide
# Description: as §1, §2, §3
# [7] = test system: winter wheat; assay: Field trial: grain yield of winter wheat, preemergence application of Cyprosulfamide
# Description: as §1, §2, §3
# [8] = test system: spring wheat; assay: Field trial: gluten content of spring wheat grains, postemergence application of Cyprosulfamide; settings: 35 days after application
# Description: as §1, §2, §3
# [9] = test system: rice; assay: Field trial: grain yield of rice, sequential application of Cyprosulfamide
# Description: as §4
# [10] = test system: cotton; assay: Field trial: lint yield of cotton, postemergence application of Cyprosulfamide; settings: 100 g ai/ha
# Description: as §1, §2, §3
# [11] = test system: spring wheat; assay: Field trial: grain yield of spring wheat, postemergence application of Cyprosulfamide
# Description: as §1, §2, §3
# [12] = test system: corn; assay: Field trial: grain yield of corn, sequential application of Cyprosulfamide
# Description: as §4
# [13] = test system: sugarbeet; assay: Field trial: sugar and beet yield of sugarbeet, sequential application of Cyprosulfamide; settings: 0.15 mg ai/seed fb 3 × 50 g ai/ha post, 44 days after last postemergence treatment
# Description: as §4
# [14] = test system: soybeans; assay: Field trial: grain yield of soybeans, postemergence application of Cyprosulfamide; settings: 100 g ai/ha
# Description: as §1, §2, §3
# [15] = test system: winter wheat; assay: Field trial: grain yield (g/1000 kernel) of winter wheat, seed treatment with Cyprosulfamide; settings: 1 g ai/kg seed
# Description: as §4
# [16] = test system: spring wheat; assay: Field trial: grain yield of spring wheat, postemergence cyprosulfamide (CPA) + epoxiconazole (EPC)
# Description: as §1, §2, §3
# [17] = test system: spring oilseed rape (canola); assay: Field trial: grain yield of spring oilseed rape (canola), postemergence CPA + tebuconazole (TBC)
# Description: as §1, §2, §3
structure (smiles),measurement,setting,value
"COc1ccccc1C(=O)NS(=O)(=O)c1ccc(C(=O)NC2CC2)cc1 [Cyprosulfamide, cyprosulfamide]",Difference(%) vs. UTC,"[1]; canola grain yield, 100 g ai/ha postemergence",+19%
same,Relative,"[1]; canola grain yield, 100 g ai/ha postemergence, UTC = 100%",119%
same,Yield (grain yield at harvest),"[1]; canola, postemergence GS 52 pre flowering, 100 g ai/ha, 63 days after treatment",2.62 t/ha
same,Difference(%) vs. UTC,"[2]; canola grain yield, sequential application",+24%
same,Relative,"[2]; canola grain yield, sequential application, UTC = 100%",124%
same,Yield (grain yield at harvest),"[2]; canola, 0.5 g ai/kg seed fb 3 × 50 g ai/ha post (4-6 leaves, stem elongation, beginning of flowering), 63 days after application",3.47 t/ha
same,Difference(%) vs. UTC,"[3]; rice plants/10 m^2, 0.5 g ai/kg seed",+23%
same,Relative,"[3]; rice plants/10 m^2, 0.5 g ai/kg seed, UTC = 100%",123%
same,plants/10 m^2 (germination and emergence),"[3]; rice, seed treatment 0.5 g ai/kg seed, 12 days after emergence",208 plants/10 m^2
same,Difference(%) vs. UTC,[4]; 0.15 mg ai/seed,+12%
same,Relative %,[4]; 0.15 mg ai/seed,112%
same,Difference(%) vs. UTC,[4]; 0.225 mg ai/seed,+13%
same,Relative %,[4]; 0.225 mg ai/seed,113%
same,Yield (grain yield at harvest),[4]; 0.15 mg ai/seed,8.32 t/ha
same,Yield (grain yield at harvest),[4]; 0.225 mg ai/seed,8.39 t/ha
same,Yield: Biomass yield at harvest,[5]; UTC 6.0,7.5 t/ha
same,Yield: Plant density at harvest,[5]; UTC 14,17.3 plants/sqm
same,Difference(%) vs. UTC,"[6]; corn grain yield, 100 g ai/ha postemergence",+28%
same,Relative,"[6]; corn grain yield, 100 g ai/ha postemergence, UTC = 100%",128%
same,Yield (grain yield at harvest),"[6]; corn, postemergence at 6-8 leaves, 100 g ai/ha, 130 days after application",5.60 t/ha
same,Difference(%) vs. UTC,"[7]; winter wheat grain yield, 100 g ai/ha preemergence",+11%
same,Relative %,"[7]; winter wheat grain yield, 100 g ai/ha preemergence, UTC = 100%",111%
same,Yield (grain yield at harvest),"[7]; winter wheat, preemergence autumn, 100 g ai/ha, 247 days after application",5.88 t/ha
same,Yield Relative: relative gluten content in harvested grains,"[8]; 100 g ai/ha at ear emergence, UTC = 100%",109%
same,Yield: gluten content (absolute) in harvested grains,"[8]; postemergence at ear emergence, 100 g ai/ha",30.9
same,Difference(%) vs. UTC,"[9]; rice grain yield, sequential application",+5%
same,Relative,"[9]; rice grain yield, sequential application, UTC = 100%",105%
same,Yield (grain yield at harvest),"[9]; rice, 0.5 g ai/kg seed fb 3 × 50 g ai/ha post, 75 days after last application",5.74 t/ha
same,Difference(%) vs. UTC,[10]; cotton lint yield,+16%
same,Relative,"[10]; cotton lint yield, UTC = 100%",116%
same,Yield t/ha (lint),"[10]; cotton lints at harvest, postemergence preflowering (GS 55), 90 days after application",0.254 t/ha
same,Difference(%) vs. UTC,"[11]; spring wheat grain yield, 100 g ai/ha postemergence",+8%
same,Yield (grain yield at harvest),"[11]; spring wheat, postemergence at beginning of emergence of the ears (GS49), 100 g ai/ha, 48 days after application",3.83 t/ha
same,Difference(%) vs. UTC,"[12]; corn grain yield, sequential application",+38%
same,Relative,"[12]; corn grain yield, sequential application, UTC = 100%",138%
same,Yield (grain yield at harvest),"[12]; corn, 0.15 g ai/kg seed fb 3 × 50 g ai/ha post (2-4 leaves, 6-8 leaves, preflowering), 98 days after emergence",14.1 t/ha
same,Yield of beets (storage root/body) by weight at harvest,[13]; UTC 59.3,61.3 t/ha
same,Sugar Yield at harvest,[13]; UTC 5778,6110 kg/ha
same,Difference(%) vs. UTC,[14]; soybean grain yield,+5%
same,Relative,"[14]; soybean grain yield, UTC = 100%",105%
same,Yield (grain yield at harvest),"[14]; soybeans, postemergence preflowering (GS 60), 45 days after application",2.78 t/ha
same,Difference(%) vs. UTC,[15]; winter wheat g/1000 kernel,+8%
same,Relative,"[15]; winter wheat g/1000 kernel, UTC = 100%",108%
same,Yield (grain yield at harvest),"[15]; winter wheat, seed treatment prior planting, 290 days after planting",39.2 g/1000 kernel
"Fc1ccc([C@]2(Cn3cncn3)O[C@H]2c2ccccc2Cl)cc1 (racemic) [EPC, epoxiconazole]",Difference(%) vs. UTC,"[16]; spring wheat grain yield, EPC 125, CPA + EPC 100 + 125 g ai/ha",+9.7%
same,Relative %,"[16]; spring wheat grain yield, EPC 125, CPA + EPC 100 + 125 g ai/ha, UTC = 100%",109.7%^
same,Yield (grain yield at harvest),"[16]; spring wheat, post-emergence spring, flag leaf sheath opening, EPC 125 g ai/ha, CPA + EPC 100 + 125 g ai/ha, 55 days after application, UTC 1.84",2.02 t/ha
"CC(C)(C)C(O)(CCc1ccc(Cl)cc1)Cn1cncn1 (centres unmarked) [TBC, tebuconazole]",Difference(%) vs. UTC,"[17]; canola grain yield, TBC 150, CPA + TBC 100 + 150 g ai/ha",+1.8%
same,Relative %,"[17]; canola grain yield, TBC 150, CPA + TBC 100 + 150 g ai/ha, UTC = 100%",101.8%
same,Yield (grain yield at harvest),"[17]; spring oilseed rape (canola), post-emergence spring, beginning of flowering, TBC 150 g ai/ha, CPA + TBC 100 + 150 g ai/ha, 92 days after application, UTC 3.91",3.91 t/ha
